What was measured:
transfected EC cells = settings: cited from earlier work
VEGF = settings: cited from earlier work
transformed cells = settings: cited from earlier work
[1] = system: non-transformed (pDCR) NIH 3T3 cells; assay: cells; type: cell-based; settings: Mus musculus, NIH3T3, 48 h, read-out: inhibition of growth

Compound | basal motility and motility stimulated by JNK agonists (transfected EC cells) | up-regulation of VEGF by heregulin (VEGF) | morphological reversion of transformed cells (transformed cells) | inhibition at 50 µM [1] [%]
trans-retinoic acid | decreased |  |  | 
SB203580 |  | blocks |  | 
COc1cccc(-c2cc(=O)c3ccccc3o2)c1N [PD98059] |  | not | causes morphological reversion | 50
COc1cc(/C=C/C(=O)CC(=O)/C=C/c2ccc(O)c(OC)c2)ccc1O [curcumin] | decreased |  |  | 
